Measurements as given in patent US20020151581A1, “Glucose and lipid lowering compounds” (priority 1998, published 2002).
Where two headings read alike, the source gives them in different places. Marks after values point to notes of the source that are not given here.

Tests used:
C57/B16J lean mice = assay: Circulating free fatty acid levels in overnight-fasted normal mice; type: in vivo; details: 50 mg/kg daily intraperitoneal for 2 weeks
Description: (§1) Male, C57/B16J lean mice were purchased from Jackson Laboratories, Bar Harbor, Me. Animals were housed and maintained in accordance with NIH guidelines and had free access to water and food ad libitum. Test compounds of the present invention were suspended in 0.25% methylcellulose (w/v in distilled water) and stored at −20° C. in single use aliquots. Animals received a daily dose via the intraperitoneal route of administration for 2 weeks. After the last dose, animals were fasted overnight. On the following morning, a 250 μl blood sample was drawn via the retro-orbital sinus into a tube containing an EDTA-saline solution and centrifuged at 1,200×g for 15 min. The plasma fraction was analyzed for non-esterified free fatty acid content (NEFA) using the NEFA C diagnostic kit (WAKO Chemicals USA, Richmond, Va.), and glycerol with the triglyceride GPO-Trinder diagnostic kit (Sigma) modified for use on a BM Hitachi 911 clinical chemistry analyzer. P-values from a student's t-test were calculated using the Prizm software data analysis program (Graphpad, Sorrento Calif.).

Candida rugosa lipase = assay: Inhibition of Candida rugosa lipase toward emulsified triolein substrate PC/PI; type: biochemical
Description: Recombinant hormone-sensitive lipase protein isolated from a bacterial expression vector was pre-incubated with a compound of the invention (e.g., 100 μM) prior to the addition of substrate, emulsified triolein phosphatidylcholine/phosphatidylinositol (PC/PI), to initiate the reaction. At various time points, aliquots of the reaction were taken, and the level of glycerol used as an index of enzyme activity. Pharmacological specificity is determined by incubating test compound with other mammalian and non-mammalian lipase enzyme systems to assess inhibition of activity. The assay was conducted using triolein concentrations from 42 μM to 835 μM.

KK/Ay mice = assay: Effects in fasted KK/Ay mice (plasma lipids and glucose); type: in vivo; details: daily intraperitoneal for 2 weeks
Description: as §1
Male, KK/Ay mice were purchased from Clea Japan USA, Pennington, N.J. At 4 months of age, animals received daily intraperitoneal administration of 2α-benzoyloxy-5,7,8αH-eudesma-4(15), 11(13)-dien-8,12-olide for 2 weeks. As described in Example 10, fasting plasma NEFA values were obtained. In addition, cholesterol and triglycerides were measured using BM reagent assay kits on a BM Hitachi 911 clinical chemistry analyzer. […] Plasma glucose levels were measured using a Boehringer Mannheim reagent assay kits on a Boehringer Mannheim Hitachi 911 clinical chemistry w analyzer.

rabbits = details: cited from earlier work

Q: What does the source list for `C=C1C(=O)O[C@@H]2C[C@@]3(C)C[C@@H](OC(=O)c4ccccc4)CC(=C)[C@@H]3C[C@H]12` [2α-benzoyloxy-5,7,8αH-eudesma-4(15),11(13)-dien-8,12-olide]?
A: NEFA (fasting plasma) (C57/B16J lean mice; vehicle 1.108): 0.808 mM; Glycerol (fasting plasma) (C57/B16J lean mice; vehicle 36): 28^b mg/dl; % reduction NEFA (C57/B16J lean mice; vs vehicle): 27%; inhibition of Candida rugosa lipase (in words) (Candida rugosa lipase; emulsified triolein substrate PC/PI): did not inhibit enzyme activity; % Inhibition (Candida lipase) (Candida rugosa lipase; triolein substrate 42 μM): 40%; Candida Lipase + test compound (enzyme activity) (Candida rugosa lipase; triolein substrate 42 μM): 3.21; % Inhibition (Candida lipase) (Candida rugosa lipase; triolein substrate 83.5 μM): −12%; Candida Lipase + test compound (enzyme activity) (Candida rugosa lipase; triolein substrate 83.5 μM): 11.59; % Inhibition (Candida lipase) (Candida rugosa lipase; triolein substrate 167 μM): 6.3%; Candida Lipase + test compound (enzyme activity) (Candida rugosa lipase; triolein substrate 167 μM): 14.14; % Inhibition (Candida lipase) (Candida rugosa lipase; triolein substrate 334 μM): 3.6%; Candida Lipase + test compound (enzyme activity) (Candida rugosa lipase; triolein substrate 334 μM): 22.68; % Inhibition (Candida lipase) (Candida rugosa lipase; triolein substrate 501 μM): −1.7%; Candida Lipase + test compound (enzyme activity) (Candida rugosa lipase; triolein substrate 501 μM): 60.13; % Inhibition (Candida lipase) (Candida rugosa lipase; triolein substrate 668 μM): −1.1%; Candida Lipase + test compound (enzyme activity) (Candida rugosa lipase; triolein substrate 668 μM): 93.59; % Inhibition (Candida lipase) (Candida rugosa lipase; triolein substrate 835 μM): 1.0%; Candida Lipase + test compound (enzyme activity) (Candida rugosa lipase; triolein substrate 835 μM): 89.71; fasting plasma NEFA (KK/Ay mice): significant reductions; plasma cholesterol (KK/Ay mice): significant reductions; plasma glycerol (KK/Ay mice): significant reductions; plasma triglycerides (KK/Ay mice): significant reductions; fasting plasma glucose level (KK/Ay mice; control mice 184±24 mg/dL, p <0.01): 90 ± 29 mg/dL

Q: Which “effect on blood glucose” value (rabbits; moderate dose) does the source give for `C=C1C(=O)O[C@@H]2C[C@@]3(C)CCC[C@H](C)C3=C[C@H]12` [alantolactone, 4,7,8αH-eudesma-5(6), 11(13)-dien-8,12-olide] here?
A: induce hypoglycemia

Q: What about the “effect on hyperglycemia induced by food” value (rabbits; rabbit, in vivo) of the same molecule?
A: inhibit hyperglycemia induced by food

Q: And the “effect on blood glucose” value (rabbits; rabbits, high dose)?
A: induce hyperglycemia
